# Results as given in the Deep4Chem optical property database.
# Assay: solvent given as SMILES
smiles,measurement,setting,value
CCCCCCn1c2ccccc2c2cc3c4cc5c6ccccc6n(CCCCCC)c5cc4c4cc5c(C)cc(=O)oc5cc4c3cc21,fluorescence lifetime,in ClC(Cl)Cl,3.1 ns
COc1ccc(/C=C/C2=[O+][B-](F)(F)OC(/C=C/c3ccc(OC)cc3)=C2c2ccc(OC)cc2)cc1,fluorescence lifetime,in ClCCl,1.31 ns
Cc1ccc(S(=O)(=O)/N=c2\oc3cccc4c5c(-c6ccccc6)oc6cccc(c(c2-c2ccccc2)c34)c65)cc1,fluorescence lifetime,in ClC(Cl)Cl,3.4 ns
CCCCCCOc1ccc2oc3c(c2c1)=CC1=C(c2ccccc2C)c2cc4c5cc(OCCCCCC)ccc5oc4n2[B-](F)(F)[N+]=31,fluorescence lifetime,in C1CCCCC1,4.12 ns
same,fluorescence lifetime,in CCOC(C)=O,3.81 ns
same,fluorescence lifetime,in CO,1.67 ns
CCN(CC)c1ccc2cc(-c3nc4ccccc4n3-c3ccccc3)c(=O)oc2c1,fluorescence lifetime,in ClCCl,13.2 ns
Cc1ccc(C2=C3C=CC(C#Cc4ccccc4)=[N+]3[B-](F)(F)n3c(C#Cc4ccccc4)ccc32)cc1,fluorescence lifetime,in C1CCCCC1,6.58 ns
same,fluorescence lifetime,in C1CCOC1,6.62 ns
same,fluorescence lifetime,in C1COCCO1,6.44 ns
same,fluorescence lifetime,in CCOC(C)=O,6.74 ns
same,fluorescence lifetime,in CO,6.51 ns
same,fluorescence lifetime,in Cc1ccccc1,6.18 ns
same,fluorescence lifetime,in ClC(Cl)Cl,6.66 ns
c1ccc(-c2cc(-c3ccccc3)cc(-c3ccc4c(c3)C3(c5cc(-c6cc(-c7ccccc7)cc(-c7ccccc7)c6)ccc5-4)c4ccccc4-c4c3c3c5ccccc5ccc3c3ccccc43)c2)cc1,fluorescence lifetime,in Cc1ccccc1,3.07 ns
COc1ccc2cc(/C=C/C3=[O+][B-](F)(F)OC(/C=C/c4ccc5cc(OC)ccc5c4)=C3c3ccccc3)ccc2c1,fluorescence lifetime,in ClCCl,1.86 ns
CC1(C)c2ccccc2N(c2ccccc2)c2ccc(C(=O)c3ccc4c(c3)C(C)(C)c3ccccc3N4c3ccccc3)cc21,fluorescence lifetime,in O=P(c1ccccc1)(c1ccccc1)c1ccccc1Oc1ccccc1P(=O)(c1ccccc1)c1ccccc1,0.81 ns
COc1ccc2c(c1)c1cc(OC)ccc1n2-c1ccc(S(=O)(=O)c2ccc(-n3c4ccc(OC)cc4c4cc(OC)ccc43)cc2)cc1,fluorescence lifetime,in Cc1ccccc1,11 ns
COc1c2ccccc2c(OC)c2c1c1ccc(C(F)(F)F)cc1n2C,fluorescence lifetime,in C1CCCCC1,26 ns
same,fluorescence lifetime,in CC#N,31.2 ns
same,fluorescence lifetime,in CO,28.6 ns
same,fluorescence lifetime,in ClCCl,25.8 ns
F[B-]1(F)OC(c2cccc(Br)c2)=Cc2c3ccccc3cc[n+]21,fluorescence lifetime,in ClC(Cl)Cl,0.173 ns
Oc1ccc(Br)cc1-c1nc2c(c3c1-c1ccccc1CC3)-c1ccccc1CC2,fluorescence lifetime,in ClCCl,1.94 ns
CCN(CC)c1ccc(-c2nc3c(c4c2-c2ccccc2CC4)-c2ccccc2CC3)cc1,fluorescence lifetime,in C1CCOC1,1.06 ns
same,fluorescence lifetime,in CC#N,0.68 ns
same,fluorescence lifetime,in CCOC(C)=O,0.85 ns
same,fluorescence lifetime,in CO,0.68 ns
same,fluorescence lifetime,in CS(C)=O,1.02 ns
same,fluorescence lifetime,in Cc1ccccc1,0.8 ns
same,fluorescence lifetime,in ClCCl,1.22 ns
CCOC(=O)CN(CC(=O)OCC)c1ccc(-c2cc(-c3ccncc3)nc(-c3ccncc3)c2)cc1,fluorescence lifetime,in CC#N,5.84 ns
same,fluorescence lifetime,in CCOC(C)=O,3.77 ns
same,fluorescence lifetime,in CN(C)C=O,6.33 ns
same,fluorescence lifetime,in CS(C)=O,6.78 ns
same,fluorescence lifetime,in c1ccccc1,2 ns
CC(O)CC1=N/C(=C\c2cccc(N(C)C)c2)C(=O)N1C (stereo not given),fluorescence lifetime,in C1CCOC1,13.2 ns
same,fluorescence lifetime,in CC#N,5.2 ns
same,fluorescence lifetime,in CCCCCC,18.9 ns
COc1ccc(C#Cc2c3cc4ccccc4cc3c(C#Cc3ccc(OC)cc3)c3cc4ccccc4cc23)cc1,fluorescence lifetime,in ClCCl,4.6 ns
CC(C)(C)c1ccc2c(c1)c1cc(C(C)(C)C)ccc1n2-c1cccc2c1Oc1c(-c3nc(-c4ccccc4)nc(-c4ccccc4)n3)cccc1C2(C)C,fluorescence lifetime,in Cc1ccccc1,4 ns
FC(F)(F)c1ccc(C2=CC3=c4cc(-c5ccc(C(F)(F)F)cc5)c5nc(C(F)(F)C(F)(F)C(F)(F)F)nc6c(-c7ccc(C(F)(F)F)cc7)cc(c4c65)C4=CC(c5ccc(C(F)(F)F)cc5)=C5N=C(C(F)(F)C(F)(F)C(F)(F)F)N=C2C5C43)cc1 (stereo not given),fluorescence lifetime,in C1CCOC1,2.8 ns
Cc1cc(C)c(C)c(B(c2c(C)c(C)cc(C)c2C)c2c(C)c(C)c(N3c4ccccc4Oc4ccccc43)c(C)c2C)c1C,fluorescence lifetime,in CC(C)(C)c1ccc(-n2c3ccc([Si](c4ccccc4)(c4ccccc4)c4ccccc4)cc3c3cc([Si](c4ccccc4)(c4ccccc4)c4ccccc4)ccc32)cc1,5.9 ns
F[B-]1(F)n2c(c3ccccc3c2-c2ccccc2)C(c2ccccc2)=C2c3ccccc3C(c3ccccc3)=[N+]21,fluorescence lifetime,in ClCCl,5.2 ns
C[Si]1(C)c2ccc(-c3cccs3)cc2C=Cc2cc(-c3cccs3)ccc21,fluorescence lifetime,in ClCCl,2 ns
Cc1cc(N(C)C)cc(C)c1/C=C/C=C/c1ccc(C#N)cc1,fluorescence lifetime,in C1CCOC1,0.51 ns
same,fluorescence lifetime,in CC#N,0.61 ns
same,fluorescence lifetime,in CCCCCC,0.29 ns
same,fluorescence lifetime,in CCCCOCCCC,0.38 ns
same,fluorescence lifetime,in CCO,0.58 ns
same,fluorescence lifetime,in CCOCC,0.49 ns
CC1(C)CC(/C=C/c2ccc(N3CCOCCOCCOCCOCC3)cc2)=CC(=C(C#N)C#N)C1,fluorescence lifetime,in CCO,0.79 ns
COc1c2ccccc2c(OC)c2c1c1c(C)ccc(OC)c1n2C,fluorescence lifetime,in C1CCCCC1,17.6 ns
same,fluorescence lifetime,in CC#N,24.2 ns
same,fluorescence lifetime,in CO,21.5 ns
same,fluorescence lifetime,in ClCCl,17.6 ns
CCN(CC)c1ccc2cc(/C=C3\CCCc4c3[o+]c3cc(N(CC)CC)ccc3c4-c3ccccc3C(=O)O)c(=O)oc2c1,fluorescence lifetime,in ClCCl,0.36 ns
CC1=C2C=CC=[N+]2[B-](F)(F)n2cccc21,fluorescence lifetime,in CCCCCC,6.62 ns
same,fluorescence lifetime,in CO,6.69 ns
same,fluorescence lifetime,in ClCCl,6.16 ns
CCN(CC)c1ccc2cc(C#N)c(=O)oc2c1,fluorescence lifetime,in ClCCl,2.7 ns
CNc1ccc(/C=C/C#N)cc1,fluorescence lifetime,in C1CCCCC1,0.6 ns
same,fluorescence lifetime,in CC#N,0.6 ns
same,fluorescence lifetime,in O,1.13 ns
C(#Cc1cccs1)C(C#Cc1cccs1)=Cc1ccc(C=C(C#Cc2cccs2)C#Cc2cccs2)cc1,fluorescence lifetime,in ClC(Cl)Cl,1.6 ns
